Where two headings read alike, the source gives them in different places.
Key:
[1] = system: platelets of rabbit blood; experiment: In vitro platelet antiaggregant activity, ADP-induced aggregation; assay type: cell-based
Protocol: (§1) The platelet antiaggregant activity of IPA 955 has been determined in comparison with a known antiaggregant activity, Ticlopidine, on the platelets of rabbit blood added with 3.6% sodium citrate in an amount of 10%. The blood was centrifuged for 15' at 1200 rpm and the surnatant was recovered for its platelet content. The residue has been further centrifuged with the aim of obtaining a "poor" plasma (3000 - 3500 rpm). The plasma platelets obtained after the first centrifugation were suitably diluted with the poor plasma, counted and the rich plasma (first centrifugation) was diluted according to the platelet count so as to obtain a final concentration of platelets of 25.10⁴ ÷ 30.10⁴/mm³.
(§2) The aggregation was induced by the addition of ADP and collagene at the specified concentrations.

aldose-reductase = biological target: T1, aldose-reductase (Rattus norvegicus, UniProt P07943); experiment: Aldose-reductase inhibitory activity (rat lens homogenate supernatant, method of Varma and Kinoshita); assay type: biochemical, rats
T1 construct: The surnatant, after centrifugation at 3000 x g for 15 minutes, has been used; from tissue; host or cells: crystalline lenses of adult male rats (homogenate supernatant)
Protocol: Crystallin lenses of adult male rats have been homogenized in 0.1 M phosphate buffer pH 6.2. The surnatant, after centrifugation at 3000 x g for 15 minutes, has been used. The surnatant contained 13 mg/ml of proteins. Quercitrin (Fluka, Buchs) 1 mM dissolved in DMSO: H2O (1:10) has been used. The aldose-reductase activity has been tested by the method described by […] J.H. Kinoshita (Biochem. Pharmacol. 25, 2505, 1976) using 1 ml of final volume containing NAPDH (20 μl of a 10 mM solution), DL glyceraldheide 1.5 x 10^-3 M final, […] (25 μl of a 1 M solution) and 150 μl of a surnatant. The blank contained the same substances, except the surnatant.

[2] = Acute toxicity in the mouse (LD50 by Litchfield and Wilcoxon method); assay type: in vivo; settings: oral and intravenous administration, at the tested doses
Protocol: The acute toxicity of IPA 955 has been studied in the mouse after oral and intravenous administration. The LD₅₀ values were calculated according to the Litchfield and Wilcoxon method (J. Pharm. Exp. Therap. 1949, 96, 99).

[3] = system: platelets of rabbit blood; experiment: In vitro platelet antiaggregant activity, collagen-induced aggregation; assay type: cell-based; settings: for inhibition at 625 µM / inhibition at 1250 µM: Oryctolagus cuniculus, Platelet, read-out: Percent inhibition; for inhibition at 625 µM: compound 0.625 mM; for inhibition at 1250 µM: compound 1.25 mM
Protocol: as §1, §2

[4] = ADP conc. 5.0 μM, compound 1.25 mM
[5] = ADP conc. 6.25 μM, compound 0.625 mM
[6] = ADP conc. 6.25 μM, compound 1.25 mM
[7] = ADP conc. 8.3 μM, compound 1.25 mM
[8] = ADP conc. 12.5 μM, compound 0.625 mM
[9] = ADP conc. 12.5 μM, compound 1.25 mM

SMILES	Percent inhibition [1, 4]	Percent inhibition [1, 5]	Percent inhibition [1, 6]	Percent inhibition [1, 7]	Percent inhibition [1, 8]	Percent inhibition [1, 9]	Percent inhibition ([1]; ADP-induced aggregation, summary over the tables)	activity relative to quercitrin (times higher) (aldose-reductase; ratio of Ki values against quercitrin)	Ki (aldose-reductase; supernatant of rat lens homogenate, DL glyceraldheide 1.5 x 10⁻³ M, NADPH, read-out: Ki)	acute toxicity [2]	inhibition at 625 µM ([3]; collagene 25 μg/ml)	inhibition at 1250 µM ([3]; collagene 25 μg/ml)	inhibition at 1250 µM ([3]; collagene 50 μg/ml)	platelet antiaggregation activity (percent inhibition) ([3]; collagen induced aggregation, summary over the tables)	Ki (aldose-reductase)
O=C(O)CCN1C(=O)c2cccc3cccc(c23)C1=O [IPA 955, N-(2-carboxy)-ethyl-1,8-naphthaleneimide]	14.6%	8.4%	25.66%	16.3%	23.17%	16.85%	about 20%	about 6 times	1.04 µM	practically devoid of toxicity	41%	48.8%	38.7%	40 to 50%	
Clc1ccccc1CN1CCc2sccc2C1 [TICLOPIDINE, Ticlopidine, reference compound]	24.4%	9.7%	20.5%	19.75%	15.66%	20.02%					45.3%	66.5%	59.6%		
C[C@@H]1O[C@@H](Oc2c(-c3ccc(O)c(O)c3)oc3cc(O)cc(O)c3c2=O)[C@H](O)[C@H](O)[C@H]1O [quercitrin, reference compound]															6 µM
